14 compounds from paper PMC11172336, “Exploring Syndecan-4 and MLP and Their Interaction in Primary Cardiomyocytes and H9c2 Cells” (Cells, 2024) can be followed below.

Where a SMILES comes first, the peptide text is derived from it. Where no end group is shown, it is not given here. The star is where a group is joined. Biotin = O=C1N[C@H]2[C@H](CS[C@H]2CCCCC(=O)*)N1; Ahx = NCCCCCC(=O)O

For test [1], the system named is cytoplasmic domain of syndecan-4 (SDC4cyt). The test can be described thus: ELISA-based assay, wells coated with MLP peptides, overlaid with biotin-SDC4cyt. The test is classed as binding, human. To be noted: for biotinylated SDC4cyt binding to mutated MLP peptide compared with MLP-WT peptide: 10 µg 30-mer peptide coated, SDC4cyt normalized to SDC4scram, related to MLP-WT (100%), n = 16, Mann-Whitney U; for biotin-SDC4cyt binding to 30 amino acid-long overlapping MLP-WT peptides: 10 µg peptide coated, biotinylated peptide 2-5 µM, 2 h 37 °C, absorbance 450 nm, normalized to SDC4scram, n = 12-28. The procedure:
(§1) 96-well ELISA microplates were coated with 10 µg of WT or mutated human 6xHis-MLP recombinant proteins or 10 µg of MLP peptides in PBS, and rotated at 4 °C overnight. Each well was rinsed with 0.05% Tween-20 in PBS (PBS-T) and blocked with 0.5% gelatin (G-1890, Sigma Merck, Darmstadt, Germany) for one hour at room temperature before incubation with the given biotinylated peptides at a final concentration of 2–5 µM for two hours at 37 °C with gentle agitation. Each well was then thoroughly washed with PBS-T five times before incubation with 100 µL of Biotin-HRP (A0185, Sigma Merck, Darmstadt, Germany) for 30 min at room temperature with gentle agitation. Each well was then washed with PBS-T 5 times before incubation with 100 µL of Ultra TMB substrate solution (34028, Thermo Fisher Scientific, Waltham, MA, USA) for 15–30 min at room temperature with gentle agitation to develop a blue color signal. The reaction was stopped with 100 µL of 2 M hydrochloric acid (HCl) per well (yellow color development). The absorbance of each well was read at 450 nm (Hidex sense multimodal microplate reader, Åbo, Finland).
We next aimed to identify the syndecan-4-MLP-binding domain(s). […]
Multiple human mutations in MLP are associated with hypertrophic cardiomyopathy (HCM) or dilated cardiomyopathy (DCM) (illustrated in Figure 2E). […] To test whether syndecan-4 binding to MLP was affected by any of the HCM- or DCM-associated mutations, we used an ELISA-based assay, where wells were coated with WT or mutated MLP peptide sequences.
In general terms: An ELISA detects its analyte on a solid surface through an enzyme-linked reagent.

Another test deals with human MLP. Briefly: Peptide array overlay of MLP 20-mers with biotinylated peptide. In kind it is binding. Particulars: 20-mers with 3 amino acid offset, overlay overnight at 4 °C, n = 3. The procedure:
Human, rat, and mouse MLP were synthesized as overlapping 20-mers with three amino acid offsets onto cellulose membranes by an automated MultiPep peptide synthesizer (INTAVIS Bioanalytical instruments AG, Tübingen, Germany). After blocking, membranes were incubated with a biotin-ahx-SDC4cyt (SDC4cyt) peptide, a scrambled biotin-ahx-SDC4cyt (SDC4scram), a custom-made MLP antibody (#R06991, GenScript Biotech Corp, Piscataway, NJ, USA), or a commercially available MLP antibody (sc-166930, Santa Cruz, Dallas, TX, USA) overnight at 4 °C. The remaining consequent steps were identical to those performed for immunoblotting, as described further below.
We next aimed to identify the syndecan-4-MLP-binding domain(s). A biotinylated peptide covering the cytoplasmic domain of syndecan-4 (SDC4cyt) was overlaid onto 20’mer overlapping peptides covering the full length of human MLP.

A further test deals with recombinant 6xHis-MLP. The test can be described thus: ELISA-based MLP self-association assay, coated recombinant 6xHis-MLP overlaid with biotinylated MLP-WT peptides. Particulars: 10 µg protein coated; biotinylated peptide 2-5 µM; PBS-only wells subtracted; n = 8. In kind it is binding, human. The procedure:
as §1
To more precisely map the sites of self-association in MLP, an ELISA-based screening method was used. Full-length recombinant 6xHis-MLP-WT protein was coated into wells and overlayed with biotinylated overlapping MLP-WT peptides, together representing the full-length MLP sequence. […] Furthermore, to test whether mutations could affect self-association, wells were instead coated with mutated recombinant 6xHis-MLP proteins and overlayed with the biotinylated MLP-WT peptides, mimicking a heterozygous interaction. Compared to the WT recombinant protein, MLP peptides aa 50–79 and 125–154 bound weaker to most of the mutated MLP recombinant proteins, except for the HCM-associated L44P (at aa 125–154) and C58G mutations (at aa 50–79 and […]) (Figure 5D, left and right panel). A larger increase in N- and C-terminal binding was also observed for C58G.

For the next test, the target named is T1, recombinant 6xHis-MLP-WT (Homo sapiens, UniProt P50461).
T1 construct: All MLP recombinant proteins were full length and had 6xHis tags at the N-terminus; purchased GenScript Biotech Corp
T1 sequence (P50461 1-194): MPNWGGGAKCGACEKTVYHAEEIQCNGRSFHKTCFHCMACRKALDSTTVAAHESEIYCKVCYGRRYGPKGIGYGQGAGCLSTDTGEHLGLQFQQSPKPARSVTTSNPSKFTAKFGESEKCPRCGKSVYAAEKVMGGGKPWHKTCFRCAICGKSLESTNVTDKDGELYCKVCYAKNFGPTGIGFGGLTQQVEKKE
Briefly: Biacore surface plasmon resonance of SDC4cyt and MLP. In kind it is binding. To be noted: SPR, biotin-ahx-SDC4cyt immobilized on SA chip, 6xHis-MLP-WT injected, 1:1 Langmuir fit, n = 4. The procedure:
A streptavidin (SA) chip (BR1000032, Cytiva, Marlborough, MA, USA) was conditioned with three 1 min injections of 1 × Biacore running buffer (BR100826, Cytiva, Marlborough, MA, USA), and biotinylated SDC4cyt was immobilized at 133–350 resonance units (RUs). Recombinant 6xHis-MLP-WT was dialyzed into 1 × Biacore running buffer, and increasing concentrations were injected over the chip’s surface at a flow rate of 30 µL per minute for 180 s. For the different runs, concentration ranges spanned 2.9–14.6 nM, 1.2–100 nM, and 21.2–500 nM. The dissociation time was set to 600 s. Sensorgrams were analyzed using the Biacore X100 software (Version 2.0.1) with the assumption of 1:1 binding (Langmuir binding model).
The binding of SDC4cyt and MLP was further investigated with surface plasmon resonance (SPR), where a biotinylated SDC4cyt peptide was immobilized on an SA chip, and a serial dilution of recombinant 6xHis-MLP-WT protein was injected over the chip. The results were analyzed by fitting with a 1:1 interaction model (Langmuir). The dissociation equilibrium constant (kD) was 15.6 ± 7.8 nM, with an association constant (ka) of (8.7 ± 1.4) × 10^4 M^−1 s^−1 and a dissociation rate constant (kd) of (12.2 ± 5.3) × 10^−4 s^−1, indicating a strong interaction (Figure 2D). […]

Consider “CNGRSFHKTCFHCMACRKALDRTTVAAHES [MLP-S46R, 30-mer human MLP peptide with S46R mutation]”, for which the “biotinylated SDC4cyt binding to mutated MLP peptide compared with MLP-WT peptide” value in test [1] is “significantly weaker”.

As to “GTKYPKMDRGKLFKYKAKPEDNESAYIK [SDC4scram]”, the “binding to 20-mer overlapping human MLP peptides on membrane” value with human MLP is given as “did not recognize any human MLP sequence”.

On to “AAHESEIYCKVCYGCRYGPKGIGYGQGAGC [MLP-R64C, 30-mer human MLP peptide with R64C mutation]”, for which, in test [1], the “biotinylated SDC4cyt binding to mutated MLP peptide compared with MLP-WT peptide” value is “tendency of reduced binding”.

As for “MLP-WT peptide aa 125–154: 30 amino acid-long overlapping MLP-WT peptide, amino acids 125–154, with or without N-terminal biotin”, the “binding of biotinylated MLP-WT peptide to full-length recombinant 6xHis-MLP-WT (self-association)” value (“binding of biotinylated MLP-WT peptide” below) with recombinant 6xHis-MLP is on record as “strongest binding”. Moreover, the “biotin-SDC4cyt binding to 30 amino acid-long overlapping MLP-WT peptides” value (“biotin-SDC4cyt binding” below) in test [1] is “binding was confirmed”.

Regarding “AAHERGIYCKVCYGRRYGPKGIGYGQGAGC [MLP-S54R,E55G, 30-mer human MLP peptide with S54R,E55G mutation]”, the “biotinylated SDC4cyt binding to mutated MLP peptide compared with MLP-WT peptide” value in test [1] is recorded as “significantly weaker”.

As for “AAHESEIYCKVCYGRRYGPKGIRYGQGAGC [MLP-G72R, 30-mer human MLP peptide with G72R mutation]”, the “biotinylated SDC4cyt binding to mutated MLP peptide compared with MLP-WT peptide” value in test [1] is “tendency of reduced binding”.

With “CNGRSFHKTCFHCMACRKAPDSTTVAAHES [MLP-L44P, 30-mer human MLP peptide with L44P mutation]”, the “biotinylated SDC4cyt binding to mutated MLP peptide compared with MLP-WT peptide” value in test [1] was “significantly weaker”.

With “MLP-WT peptide aa 165–194: biotinylated 30-mer MLP-WT peptide, amino acids 165–194 (Biotin-ELYCKVCYAKNFGPTGIGFGGLTQQVEKKE; cysteine pairing not given here)”, the “binding of biotinylated MLP-WT peptide” value with recombinant 6xHis-MLP is “Minimal binding”.

Take “MLP-WT peptide aa 50–79: 30 amino acid-long overlapping MLP-WT peptide, amino acids 50–79, with or without N-terminal biotin (AAHESEIYCKVCYGRRYGPKGIGYGQGAGC)”: the “binding of biotinylated MLP-WT peptide” value in the test on recombinant 6xHis-MLP was “strongest binding”. In addition, the “biotin-SDC4cyt binding” value in test [1] is listed as “binding was confirmed”.

For the compound “AAHESEIYCKVCYGRRYGPRGIGYGQGAGC [MLP-K69R, 30-mer human MLP peptide with K69R mutation]”, the “biotinylated SDC4cyt binding to mutated MLP peptide compared with MLP-WT peptide” value in test [1] is on record as “tendency of reduced binding”.

Consider “MLP-WT peptide aa 100–129: 30 amino acid-long overlapping MLP-WT peptide, amino acids 100–129, with or without N-terminal biotin (RSVTTSNPSKFTAKFGESEKCPRCGKSVYA)”, for which, in the test on recombinant 6xHis-MLP, the “binding of biotinylated MLP-WT peptide” value is recorded as “Minimal binding”. In addition, the “biotin-SDC4cyt binding” value in test [1] is reported as “binding was confirmed”.

On to `CC[C@H](C)[C@H](NC(=O)[C@@H]1CCCN1C(=O)[C@H](CCCCN)NC(=O)[C@H](CCCCN)NC(=O)CNC(=O)[C@H](CC(C)C)NC(=O)[C@H](CC(=O)O)NC(=O)[C@H](Cc1ccc(O)cc1)NC(=O)[C@H](CO)NC(=O)CNC(=O)[C@H](CCC(=O)O)NC(=O)[C@H](CC(=O)O)NC(=O)[C@H](CCCCN)NC(=O)[C@H](CCCCN)NC(=O)[C@H](CCCCN)NC(=O)[C@H](CCSC)NC(=O)[C@H](CCCNC(=N)N)NC(=O)CCCCCNC(=O)CCCC[C@@H]1SC[C@@H]2NC(=O)N[C@@H]21)C(=O)N[C@@H](Cc1ccc(O)cc1)C(=O)N[C@@H](CCCCN)C(=O)N[C@@H](CCCCN)C(=O)N[C@@H](C)C(=O)N1CCC[C@H]1C(=O)N[C@H](C(=O)N[C@@H](CC(N)=O)C(=O)N[C@@H](CCC(=O)O)C(=O)N[C@@H](Cc1ccccc1)C(=O)N[C@@H](Cc1ccc(O)cc1)C(=O)N[C@@H](C)C(=O)O)[C@@H](C)O` [SDC4cyt] ({Biotin-Ahx}-RMKKKDEGSYDLGKKPIYKKAPTNEFYA-OH), for which the kon on recombinant 6xHis-MLP-WT (read-out: association constant (ka)) is 87000 M⁻¹ s⁻¹. Also, the koff at recombinant 6xHis-MLP-WT (read-out: dissociation rate constant (kd)) came out at 0.00122 s⁻¹.

As for “MPNRGGGAKCGACEKTVYHAEEIQCNGRSF [MLP-W4R, 30-mer human MLP peptide with W4R mutation]”, in test [1], the “biotinylated SDC4cyt binding to mutated MLP peptide compared with MLP-WT peptide” value was “did not alter the binding”.

In the case of “MLP-WT peptide aa 25–54: 30 amino acid-long overlapping MLP-WT peptide, amino acids 25–54 (CNGRSFHKTCFHCMACRKALDSTTVAAHES)”, in test [1], the “biotin-SDC4cyt binding” value is on record as “binding was confirmed”.
